In patent US20210100905A1, “APPLICATION OF COMPOUND OR TRADITIONAL CHINESE MEDICINE EXTRACT IN PREPARATION OF NUCLEIC ACID DELIVERY AGENT, AND RELATED PRODUCTS” (INSTITUTE OF BASIC MEDICAL SCIENCES CHINESE ACADEMY OF …, priority 2018, published 2021):

Assay: In vivo delivery experiment of lipid nucleic acid mixture (Example 13)
Parameters: species or system C57 mice
Conditions: oral administration, 6 hours; for delivery effect into mouse blood and tissues (heart, spleen, kidney or intestine) compared with POPC: FIG. 117a-146b, 100 μg lipid : 1 nmol sRNA; for delivery of small RNA (PGY-sRNA-26) into kidney / delivery of small RNA (PGY-sRNA-26) into spleen / delivery of small RNA (PGY-sRNA-26) into heart / delivery of small RNA (PGY-sRNA-26) into intestine / delivery of small RNA (PGY-sRNA-26) into blood: 100 μg lipid : 1 nmol sRNA per mouse, 90° C. 15 min
Description: 1. Experiment animals: C57 mice, male, approximately 6 weeks old, 20-24g. Mice were raised in the SPF room of the Animal Center of the Institute of Basic Medical Sciences of Chinese Academy of Medical Sciences. The mice were fasted for 12 hours before intragastric administration.
2. Preparation of the mixture of lipid and small RNA: the prepration was conducted on the basis of a dose of 100 μg lipid: lnmol single stranded small RNA PGY-sRNA-26 per mouse as follows: lnmol of each sRNA was dissolved with 500 μl DEPC water in a glass tube, 100 μg corresponding lipid solution No.33, No.35,No.37, No.42, No.43, No.44, No.45, No.46, No.47, No.48, No.49, No.50, No.51, No.52, No.53, No.54, No.55, No.56, No.57, No.58, No.59, No.60, No.61, No.62, No.65, No.66, No.67, No.68, No.69 or No.70 (lipid chloroform solution with a concentration as shown in Table 1-1) was added, pipetted to mix thoroughly. The solution was heated in water bath at 90° C. for 15 min, naturally cooled down, and was administered via gavage.
1) Tissue sampling and extraction of RNA: 6 hours after gavage in mice, 500 μl of blood was taken from the eyeball, and was added 1.5 ml Trizol Reagent LS to thoroughly mix and lyse. Tissue sampling: the mouse was sarcrified by breaking its neck, and the thoracic and abdominal cavities of the mouse was exposed to remove the heart/whole spleen/two kidneys/intestine (5 cm of upper end), which was immediately added 2 ml Trizol Reagent (purchased from Invitrogen) and homogenized until complete lysis with a tissue homogenizer.
2) Reverse transcription of sRNA to cDNA: Reverse Transcription Kit (High-Capacity cDNA Reverse Transcription Kits, Applied Biosystems, cat. no. 4368813), was used to reverse transcribe the total RNA to cDNA, and the reverse system was as follows: template RNA (150 ng/μL) 10 μL, 10× RT buffer, 2.0 μL, 25× dNTP Mix (100 mM) 0.8 μL, random primers 2.0 μL, the Multi Scribe™ reverse Transcriptase 1.0 RNase inhibitor 1.0 μL, nuclease-free H2O 3.2 μL. After a brief centrifugation, the reaction was loaded in a PCR reactor. The reaction conditions were as follows: (1) 25° C., 10 min; (2) 37° C., 120 min; (3) 85° C., 5 min; (4) 4° C., termination of the reaction. After the reaction, 20 μL RNase-free ddH2O was added to make up the final volume to 40 μL.
LightCycler 480 fluorescence quantitative PCR instrument was used, and the PCR reaction conditions were: 95° C. , 5 min for pre-denaturation, followed by the PCR amplification cycle: (1) 95° C., 10 s; (2) 55° C., 10 s; (3) 72° C., 20 s; a total of 40 cycles; 40° C. for 10 s in the end to cool down. The forward primer and reverse primer of the amplification reaction were designed and synthesized by Beijing Qing Ke New Industrial Biotechnology Co., Ltd. (U6 F primer: GTGCAGGGTCCGAGGT (SEQ ID NO: 24), PGY-sRNA-26F primer: […] (SEQ ID NO: 34), reverse primer miR all rev: GTGCACGCTCCGAGGT (SEQ ID NO: 26)).
3) The relative expression amount was calculated by the 2-ΔCt method.
The data were represented in the form of mean±SEM. The parameter difference between the experimental group and the control group was evaluated by unpaired t test. The data were statistically analyzed by GraphPad Prism software, and P<0.05 was considered statistically significant.

Compound: CCCCCC/C=C\CCCCCCCCCC(=O)OC[C@H](COP(=O)(O)OCC[N+](C)(C)C)OC(=O)CCCCCCC/C=C\CCCCCC (stereo in doubt) [No. 69, 1-vaccenoyl-2-palmitoleoyl-sn-glycero-3-phosphocholine]
- delivery effect into mouse blood and tissues (heart, spleen, kidney or intestine) compared with POPC: significantly better than or equivalent to that of POPC
- delivery of small RNA (PGY-sRNA-26) into kidney: delivers small RNA
- delivery of small RNA (PGY-sRNA-26) into spleen: delivers small RNA

Compound: CCCCC/C=C\C/C=C\CCCCCCCC(=O)OC[C@H](CO)OC(=O)CCCCCCC/C=C\C/C=C\CCCCC [No. 35, (2S)-1-hydroxy-3-[(9Z,12Z)-octadeca-9,12-dienoyloxy] propan-2-yl (9Z,12Z)-octadeca-9,12-dienoate]
- delivery effect into mouse blood and tissues (heart, spleen, kidney or intestine) compared with POPC: significantly better than or equivalent to that of POPC
- delivery of small RNA (PGY-sRNA-26) into heart: delivers small RNA
- delivery of small RNA (PGY-sRNA-26) into kidney: delivers small RNA

Compound: CCCCCC/C=C\CCCCCCCC(=O)OC[C@H](COP(=O)(O)OCCN(C)C)OC(=O)CCCCCCCCCCCCC [No. 59, 1-palmitoleoyl-2-myristoyl-sn-glycero-3-phospho-ethanolamine-N,N-dimethyl]
- delivery effect into mouse blood and tissues (heart, spleen, kidney or intestine) compared with POPC: significantly better than or equivalent to that of POPC
- delivery of small RNA (PGY-sRNA-26) into intestine: delivers small RNA

Compound: CCCC/C=C\CCCCCCCC(=O)O[C@H](COC(=O)CCCCCCCCCCCCCCCCCCC)COP(=O)(O)OCC[N+](C)(C)C [No. 65, 1-eicosanoyl-2-myristoleoyl-sn-glycero-3-phosphocholine]
- delivery effect into mouse blood and tissues (heart, spleen, kidney or intestine) compared with POPC: significantly better than or equivalent to that of POPC
- delivery of small RNA (PGY-sRNA-26) into intestine: delivers small RNA
- delivery of small RNA (PGY-sRNA-26) into kidney: delivers small RNA

Compound: Mono- docosadienoin [No. 42]
- delivery effect into mouse blood and tissues (heart, spleen, kidney or intestine) compared with POPC: significantly better than or equivalent to that of POPC
- delivery of small RNA (PGY-sRNA-26) into kidney: delivers small RNA
- delivery of small RNA (PGY-sRNA-26) into spleen: delivers small RNA

Compound: CC/C=C\C/C=C\C/C=C\C/C=C\C/C=C\CCCC(=O)OCC(COC(=O)CCCCCCC/C=C\CCCCCCCC)OC(=O)CCCCCCC/C=C\C/C=C\CCCCC (stereo not drawn) [No. 67, Triglyceride (18:1/18:2 /20:5)]
- delivery effect into mouse blood and tissues (heart, spleen, kidney or intestine) compared with POPC: significantly better than or equivalent to that of POPC
- delivery of small RNA (PGY-sRNA-26) into heart: delivers small RNA
- delivery of small RNA (PGY-sRNA-26) into intestine: delivers small RNA
- delivery of small RNA (PGY-sRNA-26) into spleen: delivers small RNA

Compound: CCCCCCCC/C=C\CCCCCCCC(=O)OC[C@H](COP(=O)(O)OCCN(C)C)OC(=O)CCCCCCCCCCCCC [No. 61, 1-oleoyl-2-myristoyl-sn-glycero-3-phospho-ethanolamine-N,N-dimethyl]
- delivery effect into mouse blood and tissues (heart, spleen, kidney or intestine) compared with POPC: significantly better than or equivalent to that of POPC
- delivery of small RNA (PGY-sRNA-26) into heart: delivers small RNA
- delivery of small RNA (PGY-sRNA-26) into intestine: delivers small RNA
- delivery of small RNA (PGY-sRNA-26) into kidney: delivers small RNA

Compound: CC/C=C\C/C=C\C/C=C\CCCCCCCC(=O)OCC(COC(=O)CCCCCCCCCCCCCCC)OC(=O)CCCCCCC/C=C\C/C=C\CCCCC (stereo not drawn) [No. 56, Triglyceride (16:0/18:2/ 18:3)]
- delivery effect into mouse blood and tissues (heart, spleen, kidney or intestine) compared with POPC: significantly better than or equivalent to that of POPC
- delivery of small RNA (PGY-sRNA-26) into blood: delivers small RNA
- delivery of small RNA (PGY-sRNA-26) into heart: delivers small RNA

Compound: CC/C=C\C/C=C\C/C=C\C/C=C\C/C=C\CCCC(=O)OCC(COC(=O)CCCCCCC/C=C\C/C=C\CCCCC)OC(=O)CCCCCCC/C=C\C/C=C\CCCCC (stereo not drawn) [No. 68, Triglyceride (20:5/18:2/ 18:2)]
- delivery effect into mouse blood and tissues (heart, spleen, kidney or intestine) compared with POPC: significantly better than or equivalent to that of POPC
- delivery of small RNA (PGY-sRNA-26) into heart: delivers small RNA
- delivery of small RNA (PGY-sRNA-26) into intestine: delivers small RNA
- delivery of small RNA (PGY-sRNA-26) into spleen: delivers small RNA

Compound: Dilinolenin [No. 70]
- delivery effect into mouse blood and tissues (heart, spleen, kidney or intestine) compared with POPC: significantly better than or equivalent to that of POPC
- delivery of small RNA (PGY-sRNA-26) into heart: delivers small RNA
- delivery of small RNA (PGY-sRNA-26) into spleen: delivers small RNA

Compound: CC/C=C\C/C=C\C/C=C\CCCCCCCC(=O)OCC(COC(=O)CCCCCCC/C=C\CCCCCCCC)OC(=O)CCCCCCC/C=C\C/C=C\CCCCC (stereo not drawn) [No. 57, Triglyceride (18:1/18:2/ 18:3)]
- delivery effect into mouse blood and tissues (heart, spleen, kidney or intestine) compared with POPC: significantly better than or equivalent to that of POPC
- delivery of small RNA (PGY-sRNA-26) into kidney: delivers small RNA

Compound: CC/C=C\C/C=C\C/C=C\CCCCCCCC(=O)OCC(COC(=O)CCCCCCCCCCCCCCCCC)OC(=O)CCCCCCC/C=C\C/C=C\CCCCC (stereo not drawn) [No. 66, Triglyceride (18:0/18:2/ 18:3)]
- delivery effect into mouse blood and tissues (heart, spleen, kidney or intestine) compared with POPC: significantly better than or equivalent to that of POPC
- delivery of small RNA (PGY-sRNA-26) into blood: delivers small RNA
- delivery of small RNA (PGY-sRNA-26) into heart: delivers small RNA
- delivery of small RNA (PGY-sRNA-26) into intestine: delivers small RNA

Compound: CC/C=C\C/C=C\C/C=C\CCCCCCCC(=O)OCC(O)COC(=O)CCCCCCC/C=C\C/C=C\CCCCC (stereo not drawn) [No. 45, 1-Linolein-3-Linolenin]
- delivery effect into mouse blood and tissues (heart, spleen, kidney or intestine) compared with POPC: significantly better than or equivalent to that of POPC
- delivery of small RNA (PGY-sRNA-26) into heart: delivers small RNA
- delivery of small RNA (PGY-sRNA-26) into intestine: delivers small RNA
- delivery of small RNA (PGY-sRNA-26) into kidney: delivers small RNA
- delivery of small RNA (PGY-sRNA-26) into spleen: delivers small RNA

Compound: CCCCCC/C=C\CCCCCCCC(=O)OC[C@H](COP(=O)(O)OCC)OC(=O)CCCCCCC/C=C\CCCCCC [No. 58, 1,2-dipalmitoleoyl-sn-glycero-3-phosphoethanol]
- delivery effect into mouse blood and tissues (heart, spleen, kidney or intestine) compared with POPC: significantly better than or equivalent to that of POPC
- delivery of small RNA (PGY-sRNA-26) into heart: delivers small RNA
- delivery of small RNA (PGY-sRNA-26) into intestine: delivers small RNA

Compound: CCCCCCCCCCCCCCCC(=O)N[C@@H](CO)[C@H](O)CCCCCCCCCCCCC [No. 53, C16 dihydroceramide (d16:0/16:0)]
- delivery effect into mouse blood and tissues (heart, spleen, kidney or intestine) compared with POPC: significantly better than or equivalent to that of POPC
- delivery of small RNA (PGY-sRNA-26) into blood: delivers small RNA
- delivery of small RNA (PGY-sRNA-26) into heart: delivers small RNA
- delivery of small RNA (PGY-sRNA-26) into kidney: delivers small RNA

Compound: CCCCCCCCCCCCCCCCCCC[C@@H](O)[C@H](CO)NC(=O)CCCCCCCCCCCCCCCCC [No. 55, C18 dihydroceramide (d22:0/18:0)]
- delivery effect into mouse blood and tissues (heart, spleen, kidney or intestine) compared with POPC: significantly better than or equivalent to that of POPC
- delivery of small RNA (PGY-sRNA-26) into blood: delivers small RNA
- delivery of small RNA (PGY-sRNA-26) into heart: delivers small RNA
- delivery of small RNA (PGY-sRNA-26) into kidney: delivers small RNA
